Assay results: patent US20250134849A1, “PHARMACEUTICAL COMPOSITION FOR PREVENTING OR TREATING OCULAR DISEASE COMPRISING ENAVOGLIFLOZIN” (DAEWOONG THERAPEUTICS INC., priority 2023, published 2025)

Tested on: Macular Degeneration Animal Model
Experiment: Laser-induced macular degeneration animal model, fundus fluorescein angiography
Type: in vivo, Chinchilla rabbits
Settings: intravitreal injection 2000 μg, n=5
Experimental: Chinchilla rabbits (n=24, male) were raised at a temperature of 23±3° C., relative humidity of 55±15%, ventilation frequency of 10 to 20 times/hr, lighting time of 12 hours, and illuminance of 150 to 300 Lux. The environmental conditions such as temperature/humidity of the animal room, ventilation frequency and illuminance were measured regularly during the raising period. During the acclimation, administration, and observation periods, the rabbits were raised in a stainless-steel breeding box (W500×L800×H500 mm) at 1 animal per breeding box. The breeding boxes were cleaned every day and water bottles were exchanged every day. […]
On the 7th and 14th days after the start of administration in each group, a mydriatic agent (Mydriacyl® Eye Drops 1%) was instilled into the right eye of the rabbits, followed by anesthetizing. […] The efficacies were evaluated through retinal fundus fluorescein angiography. It was confirmed that the fluorescence intensity levels on days 7 and 14 in all macular degeneration-induced groups were higher than those in the normal control groups, G5 and G6 (p<0.001 or p<0.05).
The average fluorescence intensities of the vehicle-administered groups (G7 and G8) were set to 100% and the relative levels (%) of the fluorescence intensities measured in each animal were analyzed. […]

Substance: Aflibercept [Comparative Example 2]
- Fluorescence intensity at Day 7 (%), Mean (day 7, relative to vehicle group G7 = 100%): 93.345%
- Fluorescence intensity at Day 14 (%), Mean (day 14, relative to vehicle group G8 = 100%): 69.403%
